Test results from patent US6413983B1, “Benzopyranyl heterocycle derivatives, process for preparation thereof, and pharmaceutical compositions containing them” (Dongbu Hannong Chemical Co. Ltd., priority 2000, dated 2002).

What was measured:
[1] = test system: isolated rat aorta constricted with methoxamine; assay: Vasodilation effects on isolated aorta of rats (methoxamine-constricted rings); conditions: isolated rat aorta constricted with methoxamine (3 μM); 50% relaxation
Excerpt: Male Sprague-Dawly rats (350-450 g, obtained from the Experimental Animal Team of the Korea Research Institute of Chemical Technology) were knocked unconscious by hitting the occipital region, sacrificed by cervical dislocation, and underwent thoracotomy. After being quickly removed, the thoracic aorta was deprived of the adipose tissue and cut into aortic rings of 3 mm width. The aorta was lightly rubbed with cotton club soaked in a modified Krebs Henseleit buffer (Physiological Salt Solution, PSS) to remove the inner epithelial layer therefrom.
Thereafter, 3×10^−6 M methoxamine was applied to induce an intensive constriction in the vascular smooth muscle. When the vasoconstriction induced by the methoxamine was reached and maintained to a maximum, test compounds and controls were cumulatively added to the organ baths in concentrations of 1, 3, 10 and 30 μM so as to examine the vasodilation effect.
The change rate of constriction by the addition of the drugs compared to the maximal constriction induced by methoxamine was calculated to plot a concentration-relaxation response curve.

isolated rat hearts = assay: Cardioprotective activity in isolated ischemic heart models of rats (Langendorff, global ischemia/reperfusion); conditions: for EDP (MmHg) / LDVP × HR (%) / TTC: 10 μM; for EDP (MmHg): left ventricular end-diastolic pressure after 30 min reperfusion; for LDVP × HR (%): reperfusion double product as % of pretreatment DP, 30 min global ischemia, 30 min reperfusion; for TTC: time to contracture during global ischemia
Protocol: Male Sprague-Dawley rats weighing 300-450 g were anesthetized with sodium pentobarbital (100 mg/kg, i.p.). The tail vein was injected with heparin (1,000 U/kg) and then the trachea was intubated. […] A latex balloon filled with solvent (ethanol: water=1:1 (v/v)) and attached to a metal cannula was placed in the left ventricle through pulmonary vein and connected to a Isotec pressure transducer (H.S.E., Germany) for measurement of left ventricular pressure (LVP). […] Then, baseline contractile function, heart rate (HR), and coronary flow (CF) (extracorporeal electromagnetic flow probe, Narco Bio-System, U.S.A.) were measured. Cardiac contractile function was calculated by subtracting LVEDP from LV peak systolic pressure (LVSP), yielding developed pressure (LVDP). Double product (DP), another important parameter for assessing cardiac performance, was calculated by multiplying HR by LVDP. Throughout the experiment, all these parameters were measured, and calculated before and 10 min after pretreatment with each compound and 30 min after the onset of reperfusion with buffer. Data on reperfusion DP were further expressed as the percentage to pretreatment DP.
We then rendered the hearts globally ischemic by completely shutting off the perfusate for 30 min. Severity of ischemia was determined as the time to contracture (TTC, min) during global ischemia in which the first 5 mmHg increase in EDP was observed. Then, the hearts were reperfused and, 30 min later, contractile function (LVDP, DP) and cumulative reperfusion lactate dehydrogenase (LDH) release were measured. LDH was measured as a sensitive index for loss of cell viability with a kit supplied by Boerhinger Mannheim based on the technique of Wroblewski and LaDue [F. Wroblewski and JS.

[2] = test system: ischemic myocardium damage model of anesthetized rats; assay: Cardioprotective activity in ischemic heart models of rats (LAD occlusion/reperfusion, anesthetized rats); assay type: in vivo, rat; conditions: rat, in vivo, iv, 0.3 mg/kg
Protocol: After trachetomy, the rats were rendered to respire artificially at a rate of 60/min with a stroke volume of 10 ml/kg. Cannulars were inserted into the fermoral vein and the fermoral artery and used for drug administration and blood pressure measurement, respectively.
In the ischemic myocardial injury models, the body temperature has an important influence on the results. To avoid the change in the body temperature, a body temperature measuring probe was inserted into the rectum of each rat and the body temperature was constantly kept at 37° C. with the aid of a homeothermic blanket control unit.
Afterwards, during testing, a continuous measurement was made of the mean arterial blood pressures and heart rates from the rats. For the measurement of the blood pressure, a pressure transducer, such as that manufactured by Grass Ins., MA, U.S.A., identified as Model Statham P23XL, was used.
The heart rate was measured by a tachometer, such as that manufactured by Gould Inc., Ohio, U.S.A., identified as Biotachometer. In addition, all of the changes occurring were continuously recorded through the Gould 2000 chart recorder, manufactured by Gould Inc.
The left coronary artery was occluded according to the Selye H. method as follows. The rats underwent a left thoracotomy operation for partial opening of the chest and the right-side chest was pressurized by the middle finger of the left hand to push the heart out. Immediately after the left anterior descending coronary artery hereinafter referred to as (LAD) was carefully stitched using a suture needle with 5-0 silk ligature, the heart was then repositioned in the thoracic cavity while both ends of the ligature were situated outside. The opposite ligature ends were passed through a PE tube (PE100, 2.5 cm) and allowed to stand loose for 20 min for stabilization. Via the cannula inserted into the femoral vein, vehicles or drugs were administered into the rats which were rendered to stand for 30 min in order to sufficiently elicit the efficacies of the drugs.
Next, the PE tube which had the doubled strands of the ligature passed therethrough was pushed toward the heart and then, set upright by tightly pulling end regions of the ligature with a hemostatic pincette while pressing the coronary artery.
After the reocclusion of the coronary artery in accordance with the above procedure, the rats were administered with 2 ml of a 1% Evans blue through an intravenous route. Subsequently, an excess of pentobarbital was intravenously injected to kill the rats, after which the heat was removed and then, deprived of the right ventricle and both atria. The left ventricle was cut horizontally to the heart apex into 5 or 6 slices which were weighed. From the surface of each slice, images were input with the aid of a Hi-scope into a computer installed with an image analyzing program (Image Pro Plus). From the images input into the computer, the area of the normal blood stream tissue region which appeared blue in a computer monitor and the area which appeared colorless were measured. The percentage of the colorless area to the total area of each slice was calculated and multiplied by the weight of each slice to determine the area at risk (AAR) of each slice. The AAR obtained from each slice was summed for all slices and the total AAR was divided by the total weight of the left ventricle to yield % AAR, as shown in the following mathematical formula 1:
AAR(%)=(summed AAR for all slices)/(total weight of left ventricle)×100 [Mathematical Formula 1]
During this fixation, 2,3,5-triphenyltetrazolium chloride was reduced into formazan dye by the myocardial dehydrogenase and its cofactor NADH, so that the normal regions of the tissue were colored brick-red. In contrast, the infarct zones of the tissue were deficient in the dehydrogenase and its cofactor, so that no reduction occurred on the 2,3,5-triphenyltetrazolium, allowing the color to remain unchanged.

[3] = test system: cerebral cortical neurons; assay: Protective activity for neuronal cells against iron-induced damage (LDH release); assay type: cell-based, rat; conditions: 30 μM compound, 50 uM FeSO4, 24 hours, LDH reduction rate vs control
Protocol: From the brains of 17-18 day-old rat embryos, cerebral cortical neurons were isolated and then, cultured at 37° C. for 7-9 days in a 5% CO2 incubator. The cortical cell cultures were washed twice with a minimum essential medium (MEM) to reduce the serum concentration to 0.2% and pre-treated for 30 min with 30 μM of each of test compounds. For the experiments, the test compounds were dissolved in DMSO and diluted in a medium. At this time, the final concentration of DMSO was not allowed to exceed 0.2%. For a control group, only vehicle was applied.
After the pre-treatment with test compounds or vehicle, FeSO4 was added to a final concentration of 50 uM, and the cultures were maintained for 24 hours in a CO2 incubator. During incubation, lactate dehydrogenase (LDH) was released into the medium upon neuronal death by the oxidative toxicity of iron. The extent of neuronal damage was assessed by measuring the amount of LDH released into the media. The protective effect of the compounds of interest on neurons was evaluated by calculating the LDH reduction rate of treatment group compared with that of the control group.

rat brain homogenate = assay: Inhibitory activity against iron-induced lipid peroxidation (MDA quantification); assay type: biochemical; conditions: 100 μM compound, 400 μM FeCl2, 37° C., 30 min, MDA reduction rate vs control
Protocol: The rat brain was homogenized in a Krebs buffer (15 mM HEPES, 10 mM glucose, 140 mM NaCl, 3.6 mM KCl, 1.5 mM CaCl2, 1.4 mM KH2PO4, 0.7 mM MgCl2, pH 7.4) and the supernatant separated by centrifugation at 12,000 rpm for 10 min was used for further experiments. FeCl2 was added to a final concentration of 400 μM in the brain homogenate which was then allowed to stand at 37° C. for 30 min for the facilitation of oxidation. Each of the test compounds was added at a concentration of 100 μM and vehicle was used as a control.
Iron facilitates the oxidation of the brain homogenate to produce malondialdehyde (MDA), a lipid peroxidation product. Thus, the lipid peroxidation was determined by MDA quantification. The inhibitory effect of the test compounds against the lipid peroxidation was evaluated by calculating MDA reduction rate of the test compounds compared with that of the control group.
Typically, the MDA quantification is achieved by reacting samples with 2-thiobarbituric acid (TBA) and measuring the absorbance at 530 nm. However, this method is unsuitable to treat samples on a large scale because of a boiling step. Thus, in this experiment, N-methyl-2-phenylindole was used instead of TBA. […] Bioxytech^R LPO-586 Kit was used for MDA quantification.

| Compound | IC50 [1] [µM] | LDH (U/g) (isolated rat hearts) | EDP (MmHg) (isolated rat hearts) | LDVP × HR (%) (isolated rat hearts) | TTC (isolated rat hearts) [min] | AAR/LV (%) [2] [%] | IZ/AAR (%) [2] [%] | % Protection [3] [%] | % Inhibition (rat brain homogenate; listed as EX. 42) [%] | % Protection ([3]; listed as EX. 43) [%] | % Inhibition (rat brain homogenate; listed as EX. 43) [%] | % Inhibition (rat brain homogenate; listed as EX. 44) [%] |
| --- | --- | --- | --- | --- | --- | --- | --- | --- | --- | --- | --- | --- |
| CCOC(=O)[C@H]1Cc2cc(OC)ccc2N1[C@H]1c2cc([N+](=O)[O-])ccc2O[C@](C)(C(OC)OC)[C@@H]1O [Example 11, 1-[(2S, 3R, 4S)-3,4-dihydro-2-dimethoxymethyl-3-hydroxy-2-methyl-6-nitro-2H-1-benzopyran-4-yl]-(2R)-2,3-dihydro-1H-5-methoxyindole-2-carboxylic acid ethyl ester] | 16.5 | 13.3 | 14.7 | 66.5 | 22.9 | 38.3 | 42.1 | – | – | – | – | – |
| CCOC(=O)[C@@H]1Cc2cc(Cl)ccc2N1[C@H]1c2cc([N+](=O)[O-])ccc2O[C@](C)(C(OC)OC)[C@@H]1O [Example 20, 1-[(2S, 3R, 4S)-3,4-dihydro-2-dimethoxymethyl-3-hydroxy-2-methyl-6-nitro-2H-1-benzopyran-4-yl]-(2S)-2,3-dihydro-1H-5-chloroindole-2-carboxylic acid ethyl ester] | > 30 | – | – | – | – | 35.4 | 35.1 | 69 | – | – | – | – |
| CCOC(=O)[C@@H]1Cc2cc(OC)ccc2N1[C@@H]1c2cc([N+](=O)[O-])ccc2O[C@@](C)(C(OC)OC)[C@H]1O [Example 35, 1-[(2R, 3S, 4R)-3,4-dihydro-2-dimethoxymethyl-3-hydroxy-2-methyl-6-nitro-2H-1-benzopyran-4-yl]-(2S)-2,3-dihydro-1H-5-methoxyindole-2-carboxylic acid ethyl ester] | > 30 | 23.2 | 19 | 57.3 | 25.1 | 31.6 | 37.8 | – | – | – | – | – |
| CCOC(=O)[C@H]1Cc2cc(OC)ccc2N1[C@@H]1c2cc([N+](=O)[O-])ccc2O[C@@](C)(C(OC)OC)[C@H]1O [Example 36, 1-[(2R, 3S, 4R)-3,4-dihydro-2-dimethoxymethyl-3-hydroxy-2-methyl-6-nitro-2H-1-benzopyran-4-yl]-(2R)-2,3-dihydro-1H-5-methoxyindole-2-carboxylic acid ethyl ester] | > 30 | 18.9 | 23.3 | 53.1 | 24.7 | 37.5 | 41.4 | – | – | – | – | – |
| CCOC(=O)[C@H]1Cc2ccccc2N1[C@H]1c2cc(N)ccc2O[C@](C)(C(OC)OC)[C@@H]1O [Example 42, 1-[(2S, 3R, 4S)-6-amino-3,4-dihydro-2-dimethoxymethyl-3-hydroxy-2-methyl-2H-1-benzopyran-4-yl]-(2R)-2,3-dihydro-1H-indole-2-carboxylic acid ethyl ester] | – | – | – | – | – | – | – | 100 | 90 | – | – | – |
| CCOC(=O)[C@@H]1Cc2ccccc2N1[C@H]1c2cc(N)ccc2O[C@](C)(C(OC)OC)[C@@H]1O [Example 43, 1-[(2S, 3R, 4S)-6-amino-3,4-dihydro-2-dimethoxymethyl-3-hydroxy-2-methyl-2H-1-benzopyran-4-yl]-(2S)-2,3-dihydro-1H-indole-2carboxylic acid ethyl ester] | – | – | – | – | – | – | – | 100 | – | 101 | 93 | – |
| CCOC(=O)[C@H]1Cc2ccccc2N1[C@@H]1c2cc(N)ccc2O[C@](C)(C(OC)OC)[C@H]1O [Example 44, 1-[(2S, 3S, 4R)-6-amino-3,4-dihydro-2-dimethoxymethyl-3-hydroxy-2-methyl-2H-1-benzopyran-4-yl]-(2R)-2,3-dihydro-1H-indole-2-carboxylic acid ethyl ester] | – | – | – | – | – | – | – | 89 | – | – | – | 90 |
